# Assay results as given in patent US5126057A, “Disinfecting with N,N'-dihaloimidazolidin-4-ones” (Auburn Research Foundation, priority 1991, dated 1992).
# Key:
# [1] = Laboratory stability in halogen demand-free water (DFW), iodometric titration; format: physicochemical; details: for remaining at 23.52 h / remaining at 119.28 h / remaining at 168 h / remaining at 336 h / remaining at 504 h / remaining at 672 h / remaining at 840 h / remaining at 1008 h: demand-free water
# Procedure: The stability of 1,3-dichloro-2,2,5,5-tetramethylimidazolidin-4-one (Compound 1) in halogen demand-free water was determined at 22° C. and pH values of 4.5, 7.0, and 9.5, and the results were compared to those for free chlorine as supplied by calcium hypochlorite. The demand-free water (DFW) was prepared by chlorination of distilled, deionized water buffered to the appropriate pH followed by dechlorination (of the excess free chlorine) by exposure to direct sunlight until no free chlorine remained. This treatment insured that all halogen demand in the water was neutralized. Then Compound 1 and calcium hypochlorite were separately dissolved in identical DFW (buffered to an appropriate pH) solutions to the same final total chlorine concentrations (10 milligrams per liter potential positive chlorine). The solutions in separate flasks, which were stoppered with porous, sterile cotton plugs to allow free exchange with laboratory air, were then held at a constant temperature of 22° C. by means of a controlled water bath for a period of several weeks. Aliquots were withdrawn periodically (at least weekly), and the total positive chlorine remaining was determined in triplicate by standard iodometric titration. […]
# The stabilities of 1,3-dibromo-2,2,5,5-tetramethylimidazolidin-4-one (Compound 4) and 1-bromo-3-chloro-2,2,5,5-tetramethylimidazolidin-4-one (Compound 5) in halogen demand-free water (DFW) were determined at 22° C. and pH values of 7.0 and 9.5 using the same procedures as discussed under example 9. Given the instability of Compound 1 at pH 4.5 (example 9), it was deemed unnecessary to test compounds 4 and 5 at that pH. The two compounds were dissolved in DFW buffered to the appropriate pH in separate flasks and held at a temperature of 22° C. by means of a constant temperature bath. The starting concentrations of total potential positive halogen in the two solutions were 22.6 milligrams per liter for Compound 4 and 16.25 milligrams per liter for Compound 5; these concentrations represent the molar equivalents in total potential positive halogen to that used for Compound 1 in example 9. The solutions were analyzed in the manner described in example 9.
# [2] = Stability in synthetic halogen demand water (SDW); format: physicochemical; details: 4° C.; for stability (in words): heavy halogen demand (SDW), pH 9.5; for remaining at 0.5 h: pH 9.5, 0.5 hrs; for remaining at 24 h: pH 9.5, 24.0 hrs
# Procedure: A synthetic halogen demand water (SDW) was prepared by mixing the following substances with demand-free water (DFW): 375 milligrams per liter of each of the inorganic salts sodium chloride, potassium chloride, calcium chloride, and magnesium chloride; 50 milligrams per liter of Bentonite clay; 30 milligrams per liter of humic acid; 0.01 percent final concentration of heat-treated horse serum; and 5×10^5 cells per milliliter of heat-killed Saccharomyces cerevisiae yeast cells. The SDW solution was buffered with 0.01 Molar borate/sodium hydroxide to a pH of 9.5 and held at 4° C. during the experiments. The conditions of high ionic strength, turbidity, and organic material, and alkaline pH at low temperature, are viewed as a worst-case scenario for disinfection applications and thus should provide the optimum test of stability for the new compounds.
# In separate flasks were dissolved compounds 1, 2, 3, and 5 to a starting concentration of 10 milligrams per liter total potential positive chlorine or its molar equivalent (16.25 milligrams per liter) in total potential positive halogen for Compound 5. Aliquots were withdrawn frequently over a period of more than 90 hours, and the percent positive halogen remaining was determined by standard iodometric titration.
# [3] = tested on: Staphylococcus aureus (ATCC25923); assay: Bactericidal efficacy, percent inactivation of S. aureus; format: cell-based; details: for killing at 5 ppm: DFW; for killing at 10 ppm: SDW
# Procedure: (§1) The halogenated imidazolidin-4-one derivatives prepared as in examples 3, 5, and 6 (Compounds 1, 5, and 3, respectively) were tested as bactericides against the microorganisms Staphylococcus aureus (ATCC25923) and Pseudomonas aeruginosa (ATCC 27853) in demand-free water (DFW) as a function of pH and temperature and in a synthetic-demand water (SDW) at pH 9.5 and 4° C. The demand-free and synthetic-demand waters were prepared as described in examples 7 and 12, respectively.
# (§2) For the bactericidal efficacy tests 50 milliliters of buffered DFW or SDW were placed in a 125 milliliter flask which was then inoculated with the organism to be tested such that the final density of the organism was about 1×10^6 cfu/ml (colony forming units per milliliter). The inoculated solution was allowed to equilibrate at the test temperature by immersion in a thermostated water bath for 15 minutes with constant stirring. Then an appropriate amount of an aqueous solution containing the test halogenated imidazolidin-4-one compound maintained at the same test temperature was added to the inoculated solution to bring the total concentration of potential positive halogen (Cl^+ or Cl^+ /Br^+) in the mixture to a predetermined level (10 parts per million and 5 parts per million Cl^+ from compounds 1 and 3; the molar equivalent in Cl^+ /Br^+ from Compound 5). 1 milliliter aliquots were removed from the test mixture at various predetermined times, and the active halogen was quenched by 1 milliliter portions of sterile 0.02 Normal sodium thiosulfate. Serial dilutions were made into sterile saline, and three 25 microliter aliquots of each of the resulting dilutions were applied to the dried surface of a Petri dish containing tryptic soy and nutrient agars for plating S. aureus and P. aeruginosa, respectively. After 48 hours at 37° C. the three replicates for each dilution were counted and averaged. This average was used to compute the cfu/ml for that particular aliquot. Inactivation of the organism was considered to be at least 99.9999 percent when no colonies were detected in the thiosulfate quenched aliquots.
# [4] = tested on: bacteria; assay: Bactericidal efficacy, summary over all bacteria and conditions; format: cell-based, Staphylococcus aureus and Pseudomonas aeruginosa
# Procedure: as §1, §2
# [5] = synthetic halogen demand water, SDW, read-out: Percent Halogen Remaining
# [6] = ATCC25923, 5 min, pH 4.5, pH 4.5, 22° C., 5 minutes
# [7] = ATCC25923, 5 min, pH 7, pH 7.0, 22° C., 5 minutes
# [8] = ATCC25923, 5 min, pH 9.5, pH 9.5, 4° C., 5 minutes
# [9] = ATCC25923, 5 min, pH 9.5, pH 9.5, 22° C., 5 minutes
# [10] = ATCC25923, 10 min, pH 4.5, pH 4.5, 22° C., 10 minutes
# [11] = ATCC25923, 10 min, pH 7, pH 7.0, 22° C., 10 minutes
# [12] = ATCC25923, 10 min, pH 9.5, pH 9.5, 4° C., 10 minutes
# [13] = ATCC25923, 10 min, pH 9.5, pH 9.5, 22° C., 10 minutes
structure (smiles),measurement,setting,value
"CC1(C)NC(=O)C(C)(C)N1Cl [Compound 3, 1-chloro-2,2,5,5-tetramethylimidazolidin-4-one]",stability (in words),[1]; pH 7,more stable than Compound 1 and considerably more stable than free chlorine (Compound 2) in DFW at pH 7.0 and 22 °C
same,stability (in words),[2],extremely stable in the presence of heavy demand
same,remaining at 0.083 h,"[2]; synthetic halogen demand water, SDW, pH 9.5, 0.083 hrs, read-out: Percent Halogen Remaining",99.2%
same,remaining at 0.5 h,[2]; [5],96.6%
same,remaining at 2 h,"[2]; synthetic halogen demand water, SDW, pH 9.5, 2.0 hrs, read-out: Percent Halogen Remaining",95.4%
same,remaining at 8 h,"[2]; synthetic halogen demand water, SDW, pH 9.5, 8.0 hrs, read-out: Percent Halogen Remaining",94.1%
same,remaining at 24 h,[2]; [5],94.9%
same,remaining at 48 h,"[2]; synthetic halogen demand water, SDW, pH 9.5, 48.0 hrs, read-out: Percent Halogen Remaining",94.5%
same,remaining at 72 h,"[2]; synthetic halogen demand water, SDW, pH 9.5, 72.0 hrs, read-out: Percent Halogen Remaining",94.1%
same,remaining at 122 h,"[2]; synthetic halogen demand water, SDW, pH 9.5, 122.0 hrs, read-out: Percent Halogen Remaining",94.1%
same,killing at 5 ppm,[3]; [6],87.4%
same,killing at 5 ppm,[3]; [7],0%
same,killing at 10 ppm,[3]; [8],2.86%
same,killing at 5 ppm,[3]; [9],32.7%
same,killing at 5 ppm,[3]; [10],96.3%
same,killing at 5 ppm,[3]; [11],4.42%
same,killing at 10 ppm,[3]; [12],0%
same,killing at 5 ppm,[3]; [13],50.2%
same,bactericidal efficiency (in words),[4]; Table V conditions,least efficient
same,inactivation,"[4]; all conditions tested, given sufficient contact time",greater than 99.9999%
"CC1(C)C(=O)N(Cl)C(C)(C)N1Br [Compound 5, 1-bromo-3-chloro-2,2,5,5-tetramethylimidazolidin-4-one]",remaining at 23.52 h,[1]; pH 7,97.3%
same,remaining at 119.28 h,[1]; pH 7,95.4%
same,remaining at 168 h,[1]; pH 7,91.7%
same,remaining at 336 h,[1]; pH 7,88.2%
same,remaining at 504 h,[1]; pH 7,75%
same,remaining at 672 h,[1]; pH 7,45.9%
same,remaining at 840 h,[1]; pH 7,17.5%
same,remaining at 1008 h,[1]; pH 7,7.6%
same,remaining at 23.52 h,[1]; pH 9.5,96.3%
same,remaining at 119.28 h,[1]; pH 9.5,89.5%
same,remaining at 168 h,[1]; pH 9.5,88.3%
same,remaining at 336 h,[1]; pH 9.5,86.3%
same,remaining at 504 h,[1]; pH 9.5,70.8%
same,remaining at 672 h,[1]; pH 9.5,60.8%
same,remaining at 840 h,[1]; pH 9.5,46.8%
same,remaining at 1008 h,[1]; pH 9.5,38.4%
same,"stability (in words), against free chlorine",[1]; pH 9.5,comparable in stability to free chlorine (see data in example 9) at pH 9.5 only
same,stability (in words),[2],comparable in stability to free chlorine under these conditions
same,remaining at 0.008 h,"[2]; synthetic halogen demand water, SDW, pH 9.5, 0.008 hrs, read-out: Percent Halogen Remaining",64%
same,remaining at 0.167 h,"[2]; synthetic halogen demand water, SDW, pH 9.5, 0.167 hrs, read-out: Percent Halogen Remaining",49.9%
same,remaining at 0.5 h,[2]; [5],47.1%
same,remaining at 1 h,"[2]; synthetic halogen demand water, SDW, pH 9.5, 1.0 hrs, read-out: Percent Halogen Remaining",47.4%
same,remaining at 4 h,"[2]; synthetic halogen demand water, SDW, pH 9.5, 4.0 hrs, read-out: Percent Halogen Remaining",41.9%
same,remaining at 24 h,[2]; [5],38.2%
same,remaining at 94 h,"[2]; synthetic halogen demand water, SDW, pH 9.5, 94.0 hrs, read-out: Percent Halogen Remaining",31.8%
same,killing at 5 ppm,[3]; [6],> 100%
same,killing at 5 ppm,[3]; [7],> 100%
same,killing at 5 ppm,[3]; [8],> 100%
same,killing at 10 ppm,[3]; [8],> 100%
same,killing at 5 ppm,[3]; [9],> 100%
same,killing at 5 ppm,[3]; [10],> 100%
same,killing at 5 ppm,[3]; [11],> 100%
same,killing at 5 ppm,[3]; [12],> 100%
same,killing at 10 ppm,[3]; [12],> 100%
same,killing at 5 ppm,[3]; [13],> 100%
same,reduction of bacteria,"[4]; all conditions, less than or equal 5 minutes of contact time, even in SDW",greater than 99.9999%
